Measurements as given in patent US20040097463A1, “Use of asiatic acid or asiaticoside for treatment of cancer” (priority 2000, published 2004).
Read-outs that look alike come from different tables or passages of the source.

Experiments:
[1] = MTT dye reduction cytotoxicity test, new born foreskin fibroblast cells; type: cell-based, human; details: human
Procedure: (§1) Taxol is a commercially available chemotherapeutic predominantly used in the treatment of breast cancer, lung cancer and ovarian cancer. The experiments were performed on human foreskin fibroblast cells as well as established tumor cell lines. The percentage cytotoxicity was measured by the MTT dye reduction test, which requires the NADPH dehydrogenase enzyme of the mitochondria in live cells (1).

[2] = system: Squamous carcinoma cells of SCC15; experiment: MTT dye reduction cytotoxicity test, SCC15; type: cell-based; details: for cytotoxicity at 2.5 µg/mL / cytotoxicity at 5 µg/mL / cytotoxicity at 10 µg/mL / cytotoxicity at 20 µg/mL / cytotoxicity at 25 µg/mL: Homo sapiens
Procedure: as §1

[3] = system: Squamous carcinoma cells of SCC4; experiment: MTT dye reduction cytotoxicity test, SCC4; type: cell-based; details: Homo sapiens
Procedure: as §1

[4] = system: SK-BR3 breast cancer cell line; experiment: MTT dye reduction cytotoxicity test, SK-BR3; type: cell-based; details: Homo sapiens
Procedure: as §1

[5] = MTT dye reduction cytotoxicity test, OKF6; type: cell-based; details: human, OKF6 cells (SV40-transformed normal epithelial cell line)
[6] = system: New Born Foreskin Fibroblast cells; experiment: MTT dye reduction cytotoxicity test, new born foreskin fibroblast cells; type: cell-based, human
Procedure: as §1

[7] = MTT dye reduction cytotoxicity test, OKF6; type: cell-based; details: human
Procedure: as §1

HeLa cells = experiment: Apoptosis by DAPI staining of the nuclei in HeLa cells; type: cell-based; details: cytotoxic concentrations
Procedure: HeLa cells were treated with asiatic acid at cytotoxic concentrations and apoptosis of the cells was measured by DAPI staining of the nuclei (2).

SMILES: CC(=O)O[C@H]1C(=O)[C@@]2(C)[C@H]([C@H](OC(=O)c3ccccc3)[C@]3(O)C[C@H](OC(=O)[C@H](O)[C@@H](NC(=O)c4ccccc4)c4ccccc4)C(C)=C1C3(C)C)[C@]1(OC(C)=O)CO[C@@H]1C[C@@H]2O [Taxol, reference compound]
- cytotoxicity at 0.8 μg/ml ([1]; New Born Foreskin Fibroblast cells, 0.8 μg/ml, read-out: % cytotox): 40%
- cytotoxicity at 6.25 μg/ml ([1]; New Born Foreskin Fibroblast cells, 6.25 μg/ml, read-out: % cytotox): 40%
- cytotoxicity at 12.5 μg/ml ([1]; New Born Foreskin Fibroblast cells, 12.5 μg/ml, read-out: % cytotox): 50%
- cytotoxicity at 25 μg/ml ([1]; New Born Foreskin Fibroblast cells, 25 μg/ml, read-out: % cytotox): 55%
- cytotoxicity at 2.5 µg/mL ([2]; SCC-15, SCC15, 2.5 μg/ml, read-out: % cytotox): 3%
- cytotoxicity at 5 µg/mL ([2]; SCC-15, SCC15, 5 μg/ml, read-out: % cytotox): 0%
- cytotoxicity at 10 µg/mL ([2]; SCC-15, SCC15, 10 μg/ml, read-out: % cytotox): 0%
- cytotoxicity at 20 µg/mL ([2]; SCC-15, SCC15, 20 μg/ml, read-out: % cytotox): 8%
- cytotoxicity at 25 µg/mL ([2]; SCC-15, SCC15, 25 μg/ml, read-out: % cytotox): 23%
- cytotoxicity at 5 µg/mL ([3]; SCC-4, SCC4, 5 μg/ml, read-out: % cytotox): 52%
- cytotoxicity at 10 µg/mL ([3]; SCC-4, SCC4, 10 μg/ml, read-out: % cytotox): 60%
- cytotoxicity at 20 µg/mL ([3]; SCC-4, SCC4, 20 μg/ml, read-out: % cytotox): 60%
- cytotoxicity at 40 µg/mL ([3]; SCC-4, SCC4, 40 μg/ml, read-out: % cytotox): 60%
- cytotoxicity at 50 µg/mL ([3]; SCC-4, SCC4, 50 μg/ml, read-out: % cytotox): 40%
- cytotoxicity at 0.8 µg/mL ([4]; SK-BR-3, SK-BR3, 0.8 μg/ml, read-out: % cytotox): 40%
- cytotoxicity at 6.2 µg/mL ([4]; SK-BR-3, SK-BR3, 6.2 μg/ml, read-out: % cytotox): 50%
- cytotoxicity at 12.5 µg/mL ([4]; SK-BR-3, SK-BR3, 12.5 μg/ml, read-out: % cytotox): 40%
- cytotoxicity at 25 µg/mL ([4]; SK-BR-3, SK-BR3, 25 μg/ml, read-out: % cytotox): 50%
- cytotoxicity at 2.5 μg/ml ([5]; OKF6, 2.5 μg/ml): 26%
- cytotoxicity at 5 μg/ml ([5]; OKF6, 5 μg/ml): 41%
- cytotoxicity at 10 μg/ml ([5]; OKF6, 10 μg/ml): 54%
- cytotoxicity at 20 μg/ml ([5]; OKF6, 20 μg/ml): 48%
- cytotoxicity at 25 μg/ml ([5]; OKF6, 25 μg/ml): 75%

SMILES: C[C@H]1[C@H](C)CC[C@]2(C(=O)O)CC[C@]3(C)C(=CC[C@@H]4[C@@]5(C)C[C@@H](O)[C@H](O)[C@@](C)(CO)[C@@H]5CC[C@]43C)[C@H]12 [Asiatic Acid, asiatic acid]
- cytotoxicity at 0.8 μg/ml [1]: 30%
- cytotoxicity at 6.25 μg/ml [1]: 30%
- cytotoxicity at 12.5 μg/ml [1]: 80%
- cytotoxicity at 25 μg/ml [1]: 84%
- cytotoxic effect on human foreskin fibroblast cells in culture [6]: dose-dependent
- cytotoxicity to squamous carcinoma cells compared with solid tumor cell line [2]: more potent cytotoxicity
- cytotoxicity at 2.5 µg/mL ([2]; SCC-15, read-out: % cytotox): 16%
- cytotoxicity at 5 µg/mL ([2]; SCC-15, read-out: % cytotox): 20%
- cytotoxicity at 10 µg/mL ([2]; SCC-15, read-out: % cytotox): 88%
- cytotoxicity at 20 µg/mL ([2]; SCC-15, read-out: % cytotox): 86%
- cytotoxicity at 25 µg/mL ([2]; SCC-15, read-out: % cytotox): 90%
- cytotoxicity at 5 µg/mL ([3]; SCC-4, read-out: % cytotox): 75%
- cytotoxicity at 10 µg/mL ([3]; SCC-4, read-out: % cytotox): 75%
- cytotoxicity at 20 µg/mL ([3]; SCC-4, read-out: % cytotox): 80%
- cytotoxicity at 40 µg/mL ([3]; SCC-4, read-out: % cytotox): 70%
- cytotoxicity at 50 µg/mL ([3]; SCC-4, read-out: % cytotox): 75%
- cytotoxicity at 2.5 μg/ml [7]: 5%
- cytotoxicity at 5 μg/ml [7]: 23%
- cytotoxicity at 10 μg/ml [7]: 88%
- cytotoxicity at 20 μg/ml [7]: 92%
- cytotoxicity at 25 μg/ml [7]: 92%
- cytotoxicity at 0.8 µg/mL ([4]; SK-BR-3, read-out: % cytotox): 0%
- cytotoxicity at 6.2 µg/mL ([4]; SK-BR-3, read-out: % cytotox): 0%
- cytotoxicity at 12.5 µg/mL ([4]; SK-BR-3, read-out: % cytotox): 23%
- cytotoxicity at 25 µg/mL ([4]; SK-BR-3, read-out: % cytotox): 80%
- apoptosis of the cells measured by DAPI staining of the nuclei (HeLa cells): inducing apoptotic cell death
